Patent US6608111B1, “Method for treating or preventing prostatic conditions” (Southern Illinois University Office of Research, …, priority 1998, dated 2003)

Experiments:
[1] = system: mice; conditions: cited from earlier work
[2] = system: male Sprague-Dawley rats; assay: Example 4: effects on prostate and testis of male rats, 6 weeks; assay type: in vivo, rat; conditions: for Prostate Weight as % Body Weight / Seminal Vesicle Weight as % Body Weight / Testis Weight as % Body Weight / Body Weight (g): 0.1 ug/g of body weight once a day, mean ± SEM; for Body Weight (g): n = 10
Protocol: Sixty male Sprague-Dawley rats, 7-8 weeks of age, were randomly assigned to groups of ten animals. Each group was randomly assigned to one of six treatments: Vehicle control (C), Estradiol-17β(E), (−)-Z-BDDA, (+)-Z-BDDA, (−)-HAA, and (+)-HAA. The compounds were all administered at a dose of 0.1 μg/g of body weight in 0.1 cc once a day for 6 weeks. The estrogenic compounds were dissolved in 10% ethanol and 90% olive oil vehicle. A temperature of 21° C. and an artificial 12 h light-dark cycle were maintained in the animal room. All animals were maintained on standard chow in powdered form for six weeks, and then sacrificed after an overnight fast under i.p. pentobarbitol anesthesia (50 mg/kg). Animal weight was measured weekly during the study. During sacrifice, blood was collected via cardiac puncture. Immediately following sacrifice, the fat pads, livers, pituitaries, testes, seminal vesicles, and prostate were removed and weighed, and snap frozen in liquid nitrogen. Prostates and one testis from 2-3 animals in each treatment group were fixed in 10% formalin for histological examination. These tissues were fixed overnight, blocked in paraffin, sectioned at 4 μm, stained with Hematoxylin and Eodsin, cover slipped, and examined microscopically. Quantitative results were subjected to an analysis of variance and means separated by a Tukey's Test (SYSTAT, Chicago, Ill.).

[3] = system: MCF-7 human mammary cancer cell line; conditions: human MCF-7 cells in culture; cited from earlier work
[4] = system: male and female Wistar rats; assay: Experiment 2: chronic treatment of male and female rats, 5-6 weeks; assay type: in vivo, rat; conditions: for Food intake: n = 5
Protocol: Twenty-five male and 25 female Wistar rats, 7-8 weeks of age, were randomly assigned to groups of five animals, respectively, for treatment with vehicle only (V), estradiol (E), (±)-Z-BDDA, (+)-Z-BDDA, or (−)-Z-BDDA. Each animal in group V received a daily 0.1 cc injection of a 10% ethanol-90% olive oil solution; the other treatments received their respective compound as a daily 0.1 cc injection, e.g., 2.5 μg of compound/g of body weight, in a 10% ethanol-90% olive oil solution. A temperature of 21° C. and an artificial 12-h light-dark cycle were maintained in the animal room. All animals were maintained on standard chow in powdered form, the males for five weeks and the females for six weeks, then sacrificed after an overnight fast under i.p. pentobarbital anesthesia (50 mg/kg). Animal weight and food intake were measured weekly during the study and subsequent FER values were determined. During sacrifice, blood was collected (via cardiac puncture) for glucose, luteinizing hormone, prolactin and testosterone measurements. The amounts of luteinizing hormone, prolactin and testosterone were measured to help elucidate the target tissue of the respective compounds in male and female rats. Immediately following sacrifice the fat pads and reproductive organs were removed and weighed.
Experiments 1 and 2 employed a randomized design. All data were analyzed by one-way analysis of variance (ANOVA,)and post-hoc comparisons were made with Tukey pairwise comparisons test. Significance was confirmed at p≦0.05 (SYSTAT 7.0, SPSS INC., 1997), and all values are reported as means±standard error of the mean.

[5] = system: dialyzed LDL; assay: Oxidized LDL lag time assay (antioxidant capacity); parameters: species or system human; conditions: 3 μM Cu2SO4, drugs at 10^−4, 10^−5, 10^−6, and 10^−7 M
Protocol: Experiments were carried out on dialyzed LDL collected from four fasted persons. The LDL was used within 10 days of dialysis. The oxidizing agent was 3 μM […]; phosphate buffered saline was used to control pH, and all drugs were dissolved in ethanol; final concentrations of each drug in the assays were 10^−4, 10^−5, 10^−6, and 10^−7 M. The combined results are shown in FIG. 6.

[6] = system: primary porcine granulosa cells; assay: In situ apoptosis assay in primary porcine granulosa cells; assay type: cell-based; conditions: 24 hr treatment, 0.1, 1 and 10 μM combined, serum-free MEM; controls 63.4% / 68.4%
Protocol: Porcine ovaries were obtained from local packing plants and transported to the laboratory on ice-cold Hank's balanced salt solution (HBSS). Each of the follicles was aspirated with an insulin syringe, and the follicular fluid was centrifuged at 3000 rpm and 4° C. for 15 min. The supernatant was poured off and the cells were washed in 5 mls of cold HBSS and centrifuged for another 10 min. The cells were again resuspended in HBSS, and the number of viable cells counted under the microscope using a hematocytometer. Once the number of cells was determined, the cells were centrifuged again for 10 min. and resuspended in the appropriate volume of Eagle's minimum essential media (MEM) containing 10% fetal bovine serum (FBS) and antibiotic/antimycotics. The cells were plated at 250,000 per well in 8 chamber microscope slides (Nunc, Naperville, Ill.) which were pre-treated with poly-L-lysine for 10 min. The slides were incubated at 5% CO2/95% air at 37° C. Approximately 12 hours later, the medium was removed by vacuum and replaced with pre-warmed, serum-free MEM. Cells were then treated for 2-3 hrs with MEM only to wash out any estrogen effects from the serum (Winters et al. (1994) Biol. Reprod. 50 (Suppl. 1):113; Suttner et al. (1998) Biol. Reprod. 59 (Suppl.): (Accepted for publication). Following serum-free MEM treatment, cells were treated for 24 hr with (+) or (−) enantiomers of Z-BDDA or estradiol at 0. 1, 1, and 10 μM, or EtOH vehicle control in serum-free MEM. Cells were subsequently processed using an in situ apoptosis assay kit (Apotag-Plus In Situ Apoptosis Kit-Peroxidase, Edition 1.1., Oncor, Gaithersburg, Md., 1995) to study ovarian apoptosis (Suttner et al., 1998). The slides were washed in two changes of PBS for 5 min each, and then quenched in 2% hydrogen peroxide in methanol for 5 min. at room temperature. After pre-treatment with an equilibration buffer, 13 ul of Terminal deoxynucleotidyl Transferase (TdT) diluted with reaction buffer and distilled water were added, and the slides were incubated for 1 h at 37° C. in a humidified chamber. After this 1 h period, the slides were put in pre-warmed stop wash buffer in the incubator for 30 min to stop the reaction. Next, the slides were washed in three changes of PBS for 5 min. each, and the anti-digoxigenin peroxidase was placed on the slides for 30 min. in a humidified chamber at room temperature. […] The degree of apoptosis for the calorimetric apoptosis assay was quantified microscopically using an image analysis system (Optimas 5.23, Optimas Users Guide, 5th Edition, Redmond, Wash.). Ten measurements (captured images) were taken for each concentration based on a pre-determined grid. […] Percentage area of each color was then quantitated using the image analysis system. […]

[7] = system: rats, cats, chicks, and guinea pigs; conditions: animals including rats; cited from earlier work
[8] = female rats, 2.5 ug/g of body weight daily, six weeks, mean ± SEM
[9] = male rats, 2.5 ug/g of body weight daily, five weeks, mean ± SEM

## CC[C@H](c1ccc2cc(O)ccc2c1)C(C)(C)C(=O)O [(+)-HAA]
[1]
  effect on sulfate incorporation and weight gain: significant depression of sulfate incorporation without the corresponding effects on weight gain
[2]; 0.1 μg/g daily, FIGS. 5a-f
  testis histology: spermatogenesis: halted at round spermatid, with a few spermatogenic cells showing elongation (acrosome phase)
[2]
  Prostate Weight as % Body Weight: 0.08 ± 0.01^1 % Body Weight
  Seminal Vesicle Weight as % Body Weight: 0.10 ± 0.04 % Body Weight
  Testis Weight as % Body Weight: 0.38 ± 0.02^1,4 % Body Weight
  Body Weight (g): 196.2 ± 5.2^1,4,5 g

## CC[C@@H](c1ccc2cc(O)ccc2c1)C(C)(C)C(=O)O [(−)-HAA]
[1]
  activity in inhibition of weight gain and sulfate incorporation, relative to compound 2: 100 fold
[2]; 0.1 μg/g daily, FIGS. 4a-f
  prostate histology (alveoli): largest degree of atrophy
[2]; 0.1 μg/g daily, FIGS. 5a-f
  testis histology: spermatogenesis: halted at round spermatid, with a few reaching cap phase
[2]
  Prostate Weight as % Body Weight: 0.08 ± 0.01^1 % Body Weight
  Seminal Vesicle Weight as % Body Weight: 0.04 ± 0.00^1,4 % Body Weight
  Testis Weight as % Body Weight: 0.31 ± 0.01^1,4 % Body Weight
  Body Weight (g): 180.9 ± 4.5^1,2,4 g
[3]
  MCF-7 cell proliferation (estrogenicity): highly effective

## CC[C@@H]1c2ccc3cc(O)ccc3c2CC[C@]1(C)C(=O)O [(−)-Z-BDDA, (−)-Z-bisdehydrodoisynolic acid]
[4]; female rats (uterus), 2.5 ug/g of body weight daily, six weeks, mean ± SEM
  Uterus/testis weight (g): 1.44 ± 0.34^2,3,4 g
[4]; [8]
  Blood glucose: 95.00 ± 8.33 mg/dL
  FER (food efficiency ratio): 0.011 ± 0.005^1,2
  Food intake: 675.2 ± 37.9 g
[4]; female rats, both experiments (FIGS. 2 and 3), 2.5 μg/g daily
  weight gain (percent weight change): repress weight gain slightly more than did (+)-Z-BDDA and E2
[4]; male rats (testis), 2.5 ug/g of body weight daily, five weeks, mean ± SEM
  Uterus/testis weight (g): 0.57 ± 0.04^1 g
[4]; male rats, 2.5 μg/g daily, compared to the vehicle
  testosterone: less pronounced
[4]; [9]
  Blood glucose (mg/dl): 88.00 ± 2.00^1 mg/dl
  FER (food efficiency ratio): −0.01 ± 0.01^1
  Prostate weight (g): 0.03 ± 0.10^1 g
  Food intake: 650.0 ± 54.3 g
[5]
  antioxidant activity (shift in lag time of LDL oxidation): significant antioxidant activity
[2]; 0.1 μg/g daily, FIGS. 5a-f
  testis histology: Leydig cells: severely atrophied Leydig cells, the smallest of all the treatments
  testis histology: spermatogenesis: halted primarily at the secondary spermatocyte phase
[2]
  Prostate Weight as % Body Weight: 0.08 ± 0.00^1 % Body Weight
  Seminal Vesicle Weight as % Body Weight: 0.06 ± 0.02^4 % Body Weight
  Testis Weight as % Body Weight: 0.31 ± 0.02^1,4 % Body Weight
  Body Weight (g): 166.5 ± 4.5^1,2,4 g
[6]
  mean apoptosis (% area): 26.1%

## CC[C@H](c1ccc2cc(OC)ccc2c1)C(C)(C)C(=O)O [compound 3]
[7]
  estrogenic activity (estrogenicity) in animals: one-fifth the estrogenicity of 2
